The record followed here is US5498623A, “4(5) substituted imidazoles and their preparation and use” (Orion-yhtyma Oy, priority 1991, dated 1996).

For series [1], the system named is α2-adrenoceptor. The series can be described thus: Duration of the α2-blocking action (antagonism of detomidine mydriasis after oral pretreatment). It is filed as in vivo. As to conditions: rat, equipotent doses, pretreatment 1, 2, 4, 7 or 16 hours, time for antagonist effect to fall by half. The method, then:
The duration of the α2 -blocking action of the compounds was determined as follows: the antagonists were administered orally at equipotent doses to groups of 4 rats 1, 2, 4, 7 or 16 hours before induction of anaesthesia and challenge with cumulative i.v. dosing of detomidine. By calculating the percentage antagonism of the mydriatic effect of 0.1 mg/kg detomidine for each pretreatment group, a time-effect relationship was established. This in turn permitted the measurement of the time taken for the antagonist effect to fall by half.

The target of series [2] is T1, α2-adrenoceptor (Mus musculus, UniProt Q01338).
T1 construct: isolated, electrically stimulated mouse vas deferens preparation; from tissue; host or cells: isolated mouse vas deferens
T1 sequence (Q01338 1-465): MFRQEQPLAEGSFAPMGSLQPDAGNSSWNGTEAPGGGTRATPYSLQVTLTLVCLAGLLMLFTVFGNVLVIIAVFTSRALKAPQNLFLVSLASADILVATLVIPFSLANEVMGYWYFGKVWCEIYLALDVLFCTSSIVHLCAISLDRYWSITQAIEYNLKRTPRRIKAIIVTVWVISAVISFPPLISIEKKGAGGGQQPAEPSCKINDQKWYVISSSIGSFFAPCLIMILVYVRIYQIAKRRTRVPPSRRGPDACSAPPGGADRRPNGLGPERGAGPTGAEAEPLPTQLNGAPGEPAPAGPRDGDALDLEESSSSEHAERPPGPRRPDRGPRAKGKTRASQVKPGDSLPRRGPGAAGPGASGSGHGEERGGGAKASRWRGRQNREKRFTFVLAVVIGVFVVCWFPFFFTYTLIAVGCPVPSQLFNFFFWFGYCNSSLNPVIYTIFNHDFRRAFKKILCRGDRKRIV
The series can be described thus: α2-Antagonism in vitro, isolated electrically stimulated mouse vas deferens (vs detomidine). The method, then: 1. α2 -Antagonism in vitro
α2 -Antagonism was determined by means of isolated, electrically stimulated mouse vas deferens preparation (Marshall et al., Br. J. Pharmac. 62, 147, 151, 1978). In this model, α2 -agonist (detomidine) blocks electrically stimulated muscular contractions and the effect of the α2 -antagonist is seen by administering it prior to the agonist and by determining its pA2 value.

Series [3] addresses T2, α1-adrenoceptor (Rattus norvegicus, UniProt P43140).
T2 sequence (P43140 1-466): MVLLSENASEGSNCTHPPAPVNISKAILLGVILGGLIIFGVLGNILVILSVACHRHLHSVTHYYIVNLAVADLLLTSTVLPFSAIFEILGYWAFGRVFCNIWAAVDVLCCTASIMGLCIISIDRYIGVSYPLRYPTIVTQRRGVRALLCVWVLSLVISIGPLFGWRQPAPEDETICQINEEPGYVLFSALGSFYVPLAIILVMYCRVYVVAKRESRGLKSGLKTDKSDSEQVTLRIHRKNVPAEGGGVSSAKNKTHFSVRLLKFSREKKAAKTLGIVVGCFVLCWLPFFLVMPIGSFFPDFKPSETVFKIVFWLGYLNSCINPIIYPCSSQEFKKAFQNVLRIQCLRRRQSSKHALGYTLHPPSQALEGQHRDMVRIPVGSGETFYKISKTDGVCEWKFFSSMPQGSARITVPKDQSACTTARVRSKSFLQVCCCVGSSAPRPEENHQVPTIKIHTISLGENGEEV
Conditions: for α1-Agonism (pD2) rat vas deferens / EC50: negative logarithm of molar concentration producing 50 percent of maximal contraction; for EC50: read-out: α1-Agonism (pD2) rat vas deferens (converted). The method, then: (§1) To obtain information also on the selectivity of the antagonist between α1 - and α2 -receptors, its ability to inhibit or stimulate α1 -receptors was determined by means of isolated epididymal portion of rat vas deferens. The reference substances were now phenylephrine, a known α1 -agonist, and prazosin, a known α1 -antagonist. To determine α1 -antagonism, muscular contraction was induced by phenylephrine and the pA2 value of the studied compound was determined as above α1 -Agonist effect is presented as the pD2 value (negative logarithm of the molar concentration of the compound producing 50 percent of maximal contraction).

Series [4] relates to α2-adrenoceptor. The series can be described thus: α2-Adrenoceptor antagonism in vivo, reversal of detomidine-induced mydriasis in anaesthetized rat. Conditions: dose producing 50 per cent reversal of detomidine-induced mydriasis. As to the method: 2. α2 -Adrenoceptor antagonism in vivo
It is known that in the rat α2 -agonists induce dilatation of the pupil (mydriasis) which effect is transmitted via postsynaptic α2 -receptors in the central nervous system. In anaesthetized rat, a standard dose of an α2 -agonist, detomidine, was administered intravenously. Thereafter increasing doses of the studied antagonists were injected intravenously and the reversal of detomidine-induced mydriasis was followed. The ED50 value of the antagonist, i.e. the dose producing a 50 per cent reversal, was determined.

In series [5] the target is T3, α2-adrenoceptor (Rattus norvegicus, UniProt P22909).
T3 construct: transmitted via postsynaptic α2 -receptors in the central nervous system; from tissue; host or cells: whole anaesthetized rat (in vivo), central nervous system
T3 sequence (P22909 1-465): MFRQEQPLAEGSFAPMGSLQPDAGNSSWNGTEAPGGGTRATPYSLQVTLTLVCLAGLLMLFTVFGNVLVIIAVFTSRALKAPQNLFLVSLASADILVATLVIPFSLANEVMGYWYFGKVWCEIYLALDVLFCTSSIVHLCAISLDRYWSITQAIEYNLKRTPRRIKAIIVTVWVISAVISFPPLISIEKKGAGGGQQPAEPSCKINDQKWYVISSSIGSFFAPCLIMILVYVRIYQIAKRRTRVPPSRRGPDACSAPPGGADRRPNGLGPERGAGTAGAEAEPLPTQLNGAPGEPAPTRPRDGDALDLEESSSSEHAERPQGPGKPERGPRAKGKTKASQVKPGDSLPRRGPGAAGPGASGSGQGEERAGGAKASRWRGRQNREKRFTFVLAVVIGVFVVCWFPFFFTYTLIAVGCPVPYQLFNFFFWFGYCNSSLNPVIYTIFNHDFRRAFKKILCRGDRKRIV
The series can be described thus: Relative peroral bioavailability (α2-blocking potency after peroral vs parenteral administration). It is filed as in vivo. As to conditions: equipotent doses 0.3 to 3 mg/kg, 1 hour before anaesthesia. The method, then:
The relative bioavailability of the antagonists when administered orally was evaluated by comparing the potency of their α2 -blocking effect after peroral and parenteral administration. The antagonists were administered at equipotent doses (0.3 to 3 mg/kg) to groups of rats 1 hour before induction of anaesthesia and challenge with detomidine as described above in relation to the measurement of duration of action.

For series [6], the system named is α1-adrenoceptor. Put plainly: α1-Antagonism in vitro, isolated epididymal portion of rat vas deferens (vs phenylephrine). As to conditions: contraction induced by phenylephrine. The method, then:
as §1

A further series concerns rats. The series can be described thus: Effects on learning and memory in linear arm maze task. Conditions: for learning and memory effect (overall): adult rats; for time to solve the task / number of errors (reentries into arms already visited): rats; for time to solve the task: effect on learning and speed to make correct choices; for number of errors (reentries into arms already visited): effect on working memory. It is filed as in vivo, rat. As to the method: The linear arm maze is a modified version of radial arm maze, which is a generally used memory test in rats. […] Water was also used as control. All injections were made in a volume 1 ml/kg.
Apparatus: The maze was a wooden platform in a shape of two crosses one after another. The stem (starting arm) was 90 cm long and 12 cm wide. The five other arms (goal arms) were 50 cm long and 12 cm wide. Four goal arms were situated perpendicularly to the stem and to the fifth arm which located opposite to the stem. On either side of the stem and the arms were edges, 2.0 cm high. At the end of each goal arm a hole 1 cm deep and 3 cm in diameter, served as a food cup. The starting platform (20×20 cm) was separated from the stem by a quillotine door. The door was 12 cm high and 7 cm wide. The door frame was 20 cm high and 20 cm wide. The maze was elevated 31 cm above the floor, in a low-lighted test room which contained other objects as well as the test apparatus. The holes at the end of the goal arms were baited with three pellets of prize food (45 mg pellets Bio Serve Inc.).
Procedures: Two days prior to training, animals were placed on a food deprivation schedule that reduces their body weights to 90% of initial weights. During these days the rats were habituated to handling (three times/day), test room and prize food. On the second day they were also habituated to the unbaited maze: three to five animals from the same cage at the same time for ten minutes. On the third day the goal arms were baited, and the teaching trial, one rat at a time, was carried out. The rat received drug or distilled water and […] later it was placed in the starting platform. After ten seconds the door was opened and the rat was allowed to explore the maze until all the baits were found. The time to find all the baits and reentries made into already visited arms was recorded. This time every rate was allowed to stay in the maze at least for five minutes. On the next day the proper memory and learning testing began and continued for four days (testing days 1 to 4). Rats were given eight trials, two per day. Inter trial interval was 50 minutes. Drugs or distilled water were administered 30 minutes before the first trial of the day. Otherwise testing trials were identical to the teaching trial. All the observations were done blind so that test solutions were in coded flasks.
Statistical analysis: The results were expressed as mean time/trial/day (seconds) and mean errors/trial/day. The analysis of variance for the repeated measurements (ANOVA) was used to compare the drugs' and the testing days' effects on learning and memory.

Series [7] can be described thus: Acute toxicity (LD50) using mice. Conditions: mouse, in vivo, po. The method, then: For example, the LD50 for 7-(4-(5-fluoro-2,3-dihydro-1H-inden-2-yl)-1H-imidazole) is 100 mg/kg (p.o.).
Setting [8] is: antagonist given prior to detomidine, mouse vas deferens, read-out: α2-Antagonism (pA2 vs detomidine) mouse vas deferens (converted).

Read-outs that look alike come from different tables or passages of the source.

With `CCC1(c2c[nH]cn2)Cc2ccc(F)cc2C1` (stereo not drawn) [Compound 1, 4-(2-Ethyl-5-fluoro-2,3-dihydro-1H-inden-2-yl)-1H-imidazole], the t1/2 of α2-antagonism in the series with α2-adrenoceptor [1] amounted to 3 h. Further, the Kb on α2-adrenoceptor [2] (setting [8]) was 6.31 nM. Moreover, the “α1-Agonism (pD2) rat vas deferens” value on α1-adrenoceptor [3] was “no effect”. Also, the “α2-Antagonism ED50 (iv)” value with α2-adrenoceptor [4] is 0.015 mg/kg. In addition, at α2-adrenoceptor [5], the Peroral bioavailability worked out at 81. The “α1-Antagonism (pA2 vs phenylephrine) rat vas deferens” value in the series with α1-adrenoceptor [6] is reported as “no effect”.
For the compound `CC1(c2c[nH]cn2)Cc2ccc(F)cc2C1` (stereo not drawn) [Compound 2, 4-(5-Fluoro-2,3-dihydro-2-methyl-1H-inden-2-yl)-1H-imidazole], the Kb on α2-adrenoceptor [2] (setting [8]) was 50.1 nM.
For the compound `CCC1(c2c[nH]cn2)Cc2cc(F)c(F)cc2C1` [Compound 3, 4-(2-Ethyl-5,6-difluoro-2,3-dihydro-1H-inden-2-yl)-1H-imidazole], the Kb on α2-adrenoceptor [2] (setting [8]) is 63.1 nM.
As for `CCC1(c2c[nH]cn2)Cc2ccc(F)cc2C1=O` (stereo not drawn) [Compound 4, 2-Ethyl-6-fluoro-2,3-dihydro-2-(1H-imidazol-4-yl)-1H-inden-1-one], in the series with rats (3 mg/kg p.o. (hydrochloride)), the “learning and memory effect (overall)” value was “learning and memory enhancing effects”; the “time to solve the task” value is recorded as “decreased the time to solve the task”; the “number of errors (reentries into arms already visited)” value (“number of errors” for short) is recorded as “decreased number of errors”. In addition, the t1/2 of α2-antagonism in the series with α2-adrenoceptor [1] is 6 h. Further, at α2-adrenoceptor [2] (setting [8]), the Kb was 1260 nM. Further, on α1-adrenoceptor [3], the “α1-Agonism (pD2) rat vas deferens” value was “no effect”. The “α2-Antagonism ED50 (iv)” value in the series on α2-adrenoceptor [4] turned out to be 0.3 mg/kg. Moreover, the Peroral bioavailability on α2-adrenoceptor [5] stood at 89. Moreover, the “α1-Antagonism (pA2 vs phenylephrine) rat vas deferens” value with α1-adrenoceptor [6] is given as “no effect”.
With `CCC1(c2c[nH]cn2)Cc2ccc(Cl)cc2C1=O` (stereo not drawn) [Compound 5, 6-Chloro-2-ethyl-2,3-dihydro-2-(1H-imidazol-4-yl)-1H-inden-1-one], the Kb at α2-adrenoceptor [2] (setting [8]) is 251 nM.
Consider `Fc1cccc2c1CC(c1c[nH]cn1)C2` (stereo not drawn) [Compound 6, 4-(4-Fluoro-2,3-dihydro-1H-inden-2-yl)-1H-imidazole], for which the Kb on α2-adrenoceptor [2] is 7.94 nM. In addition, the EC50 on α1-adrenoceptor [3] was 316 nM. Further, the “α1-Agonism, type of agonist (full/partial)” value at α1-adrenoceptor [3] (rat vas deferens) is “full agonist”.
On to `Fc1ccc2c(c1)CC(c1c[nH]cn1)C2` (stereo not drawn) [Compound 7, 4-(5-Fluoro-2,3-dihydro-1H-inden-2-yl)-1H-imidazole], for which, in the series on rats (0.3 mg/kg s.c. (hydrochloride)), the “learning and memory effect (overall)” value was “learning and memory enhancing effects”; the “time to solve the task” value is given as “decreased the time to solve the task”; the “number of errors” value was “decreased number of errors”. Also, in the series on α2-adrenoceptor [1], the t1/2 of α2-antagonism turned out to be 7 h. The compound further showed a Kb at α2-adrenoceptor [2] of 10 nM. For the same compound, the EC50 at α1-adrenoceptor [3] is 3160 nM. The “α2-Antagonism ED50 (iv)” value in the series on α2-adrenoceptor [4] was found to be 0.01 mg/kg. In series [7], this compound showed an LD50 of 100 mg/kg. Further, the Peroral bioavailability on α2-adrenoceptor [5] amounted to 80.
As to `CCC1(c2c[nH]cn2)Cc2ccc(O)cc2C1` (stereo not drawn) [Compound 8, 2-Ethyl-2-(1H-imidazol-4-yl)-5-indanol], the Kb at α2-adrenoceptor [2] (setting [8]) was 63.1 nM.
Regarding `CCC1(c2cnc[nH]2)Cc2ccccc2C1` [atipamezole, reference compound], in the series with rats (0.3 mg/kg s.c. (hydrochloride)), the “learning and memory effect (overall)” value is “learning and memory enhancing effects”; the “time to solve the task” value is on record as “decreased the time to solve the task”; the “number of errors” value is “decreased number of errors”. Besides, the t1/2 of α2-antagonism in the series with α2-adrenoceptor [1] is 2 h. Besides, the Kb at α2-adrenoceptor [2] was 7.94 nM. Further, the “α1-Agonism (pD2) rat vas deferens” value on α1-adrenoceptor [3] is listed as “no effect”. Also, the “α2-Antagonism ED50 (iv)” value in the series on α2-adrenoceptor [4] came to 0.01 mg/kg. In the series on α1-adrenoceptor [6], the “α1-Antagonism (pA2 vs phenylephrine) rat vas deferens” value stood at 5.0.

In general, LD50 refers to the dose expected to kill half of the subjects tested. A lower LD50 goes with a more toxic substance.
